Our source for the Ki values is patent US8394952B2 (Vertex Pharmaceuticals Incorporated, priority 2006, dated 2013).

Usually Ki stands for a measure of affinity in units of concentration, obtained from inhibition or displacement. Low values mean tighter binding, high ones weaker binding.

In this assay the target is Plk1 (Homo sapiens, UniProt P53350). Put plainly: biochemical.
Chain of Plk1 (P53350 20-338): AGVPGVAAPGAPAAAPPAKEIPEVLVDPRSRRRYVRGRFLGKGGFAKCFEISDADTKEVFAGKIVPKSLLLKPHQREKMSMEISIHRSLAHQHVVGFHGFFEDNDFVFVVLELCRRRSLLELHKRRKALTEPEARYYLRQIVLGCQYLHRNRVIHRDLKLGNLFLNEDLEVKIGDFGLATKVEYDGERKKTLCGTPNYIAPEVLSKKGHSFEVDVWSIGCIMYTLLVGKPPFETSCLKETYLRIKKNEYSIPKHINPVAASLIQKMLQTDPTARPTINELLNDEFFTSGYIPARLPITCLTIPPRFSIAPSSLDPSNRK

The compound `CN1CCC(C(=O)Nc2cccc(Nc3ncc4c(n3)N(C3CCCC3)CC(C)(C)C(=O)N4C)c2)CC1` [Compound I-157, N-(3-(9-cyclopentyl-6,7,8,9-tetrahydro-5,7,7-trimethyl-6-oxo-5H-pyrimido[4,5-b][1,4]diazepin-2-ylamino)phenyl)-1-methylpiperidine-4-carboxamide] yielded an inhibition constant (Ki) below 10 nM. As to `COc1ccc(NC(C)=O)cc1Nc1ncc2c(n1)N(C1CCCC1)CC(C)(C)C(=O)N2C` [Compound I-158, N-(3-(9-cyclopentyl-6,7,8,9-tetrahydro-5,7,7-trimethyl-6-oxo-5H-pyrimido[4,5-b][1,4]diazepin-2-ylamino)-4-methoxyphenyl)acetamide], the Ki is below 10 nM. The value for `CN1C(=O)C(C)(C)CN(C2CCCC2)c2nc(Nc3cccc(C(=O)NC4CC4)c3)ncc21` [Compound I-159, 3-(9-cyclopentyl-6,7,8,9-tetrahydro-5,7,7-trimethyl-6-oxo-5H-pyrimido[4,5-b][1,4]diazepin-2-ylamino)-N-cyclopropylbenzamide] was 10 to 100 nM.

`CNC(=O)c1ccc(Nc2ncc3c(n2)N(CC(F)(F)C(F)(F)F)CC(C)(C)C(=O)N3C)c(OC)c1` [Compound I-160, 4-(9-(2,2,3,3,3-pentafluoropropyl)-6,7,8,9-tetrahydro-5,7,7-trimethyl-6-oxo-5H-pyrimido[4,5-b][1,4]diazepin-2-ylamino)-3-methoxy-N-methylbenzamide]: the Ki is 10 to 100 nM. On to `CNC(=O)c1ccc(Nc2ncc3c(n2)N(c2cccc(Cl)c2)CC(C)(C)C(=O)N3C)c(OC)c1` [Compound I-161, 4-(9-(3-chlorophenyl)-6,7,8,9-tetrahydro-5,7,7-trimethyl-6-oxo-5H-pyrimido[4,5-b][1,4]diazepin-2-ylamino)-3-methoxy-N-methylbenzamide], for which the Ki is 10 to 100 nM. As to `CC(=O)Nc1cc(Nc2ncc3c(n2)N(C2CCCC2)CC(C)(C)C(=O)N3C)ccc1C` [Compound I-162, N-(5-(9-cyclopentyl-6,7,8,9-tetrahydro-5,7,7-trimethyl-6-oxo-5H-pyrimido[4,5-b][1,4]diazepin-2-ylamino)-2-methylphenyl)acetamide], the Ki is 10 to 100 nM. The value for `CC(=O)Nc1ccc(C)c(Nc2ncc3c(n2)N(C2CCCC2)CC(C)(C)C(=O)N3C)c1` [Compound I-163, N-(3-(9-cyclopentyl-6,7,8,9-tetrahydro-5,7,7-trimethyl-6-oxo-5H-pyrimido[4,5-b][1,4]diazepin-2-ylamino)-4-methylphenyl)acetamide] was below 10 nM. Compound `CN1C(=O)C(C)(C)CN(C2CCCC2)c2nc(Nc3cccc(NC(=O)N4CCCCC4)c3)ncc21` [Compound I-164, N-(3-(9-cyclopentyl-6,7,8,9-tetrahydro-5,7,7-trimethyl-6-oxo-5H-pyrimido[4,5-b][1,4]diazepin-2-ylamino)phenyl)piperidine-1-carboxamide] registered an inhibition constant (Ki) of 10 to 100 nM.

Turning to `CC(=O)Nc1c(F)ccc(Nc2ncc3c(n2)N(C2CCCC2)CC(C)(C)C(=O)N3C)c1F` [Compound I-165, N-(3-(9-cyclopentyl-6,7,8,9-tetrahydro-5,7,7-trimethyl-6-oxo-5H-pyrimido[4,5-b][1,4]diazepin-2-ylamino)-2,6-difluorophenyl)acetamide], the Ki lay within 10 to 100 nM.

Compound `COc1cc(C(=O)NC2CC(F)(F)C2)ccc1Nc1ncc2c(n1)N(C1CCCC1)CC(C)(C)C(=O)N2C` [Compound I-166, 4-(9-cyclopentyl-6,7,8,9-tetrahydro-5,7,7-trimethyl-6-oxo-5H-pyrimido[4,5-b][1,4]diazepin-2-ylamino)-N-(3,3-difluorocyclobutyl)-3-methoxybenzamide] displayed a Ki below 10 nM. For the compound `CNC(=O)c1ccc(Nc2ncc3c(n2)N(C2CCC2)CC(C)(C)C(=O)N3C)c(OC)c1` [Compound I-167, 4-(9-cyclobutyl-6,7,8,9-tetrahydro-5,7,7-trimethyl-6-oxo-5H-pyrimido[4,5-b][1,4]diazepin-2-ylamino)-3-methoxy-N-methylbenzamide], the Ki is below 10 nM. Consider `CNC(=O)c1ccc(Nc2ncc3c(n2)N(CC(C)(C)C)CC(C)(C)C(=O)N3C)c(OC)c1` [Compound I-168, 4-(6,7,8,9-tetrahydro-5,7,7-trimethyl-9-neopentyl-6-oxo-5H-pyrimido[4,5-b][1,4]diazepin-2-ylamino)-3-methoxy-N-methylbenzamide], for which the Ki was 10 to 100 nM. `CNC(=O)c1ccc(Nc2ncc3c(n2)N(CC2CC2(F)F)CC(C)(C)C(=O)N3C)c(OC)c1` (stereo not drawn) [Compound I-169, 4-(9-((2,2-difluorocyclopropyl)methyl)-6,7,8,9-tetrahydro-5,7,7-trimethyl-6-oxo-5H-pyrimido[4,5-b][1,4]diazepin-2-ylamino)-3-methoxy-N-methylbenzamide] showed a Ki below 10 nM. The value for `CNC(=O)c1ccc(Nc2ncc3c(n2)N(C2CC(F)(F)C2)CC(C)(C)C(=O)N3C)c(OC)c1` [Compound I-170, 4-(9-(3,3-difluorocyclobutyl)-6,7,8,9-tetrahydro-5,7,7-trimethyl-6-oxo-5H-pyrimido[4,5-b][1,4]diazepin-2-ylamino)-3-methoxy-N-methylbenzamide] was below 10 nM; that for `COc1cc(C(=O)NC2CCOCC2)ccc1Nc1ncc2c(n1)N(C1CC(F)(F)C1)CC(C)(C)C(=O)N2C` [Compound I-171, 4-(9-(3,3-difluorocyclobutyl)-6,7,8,9-tetrahydro-5,7,7-trimethyl-6-oxo-5H-pyrimido[4,5-b][1,4]diazepin-2-ylamino)-N-(tetrahydro-2H-pyran-4-yl)-3-methoxybenzamide] was below 10 nM; that for `COc1cc(C(=O)N[C@H]2CCOC2)ccc1Nc1ncc2c(n1)N(C1CCCC1)CC(C)(C)C(=O)N2C` [Compound I-172, 4-(9-cyclopentyl-6,7,8,9-tetrahydro-5,7,7-trimethyl-6-oxo-5H-pyrimido[4,5-b][1,4]diazepin-2-ylamino)-N—((S)-tetrahydrofuran-3-yl)-3-methoxybenzamide] was below 10 nM. Take `COc1cc(C(=O)NC2CCCC2)ccc1Nc1ncc2c(n1)N(C1CCCC1)C[C@H](C)C(=O)N2C` [Compound I-173, 4-((S)-9-cyclopentyl-6,7,8,9-tetrahydro-5,7-dimethyl-6-oxo-5H-pyrimido[4,5-b][1,4]diazepin-2-ylamino)-N-cyclopentyl-3-methoxybenzamide]: the inhibition constant (Ki) was below 10 nM.

The compound `COc1cc(C(=O)NC2CCOCC2)ccc1Nc1ncc2c(n1)N(C1CCCC1)C[C@H](C)C(=O)N2C` [Compound I-174, 4-((S)-9-cyclopentyl-6,7,8,9-tetrahydro-5,7-dimethyl-6-oxo-5H-pyrimido[4,5-b][1,4]diazepin-2-ylamino)-N-(tetrahydro-2H-pyran-4-yl)-3-methoxybenzamide] gave an inhibitory constant (Ki) below 10 nM. The value for `COc1cc(C(=O)NC2CC2)ccc1Nc1ncc2c(n1)N(C1CCCC1)C[C@H](C)C(=O)N2C` [Compound I-175, 4-((S)-9-cyclopentyl-6,7,8,9-tetrahydro-5,7-dimethyl-6-oxo-5H-pyrimido[4,5-b][1,4]diazepin-2-ylamino)-N-cyclopropyl-3-methoxybenzamide] was below 10 nM; that for `COc1cc(C(=O)NC2CCCC2)ccc1Nc1ncc2c(n1)N(C1CCCC1)CC1(CC1)C(=O)N2C` [Compound I-176, N-cyclopentyl-4-(9′-cyclopentyl-5′-methyl-6′-oxo-5′,6′,8′,9′-tetrahydrospiro[cyclopropane-1,7′-pyrimido[4,5-b][1,4]diazepine]-2′-ylamino)-3-methoxybenzamide] was below 10 nM. The same measure for `COc1cc(C(=O)NC2CCOCC2)ccc1Nc1ncc2c(n1)N(C1CCCC1)CC1(CC1)C(=O)N2C` [Compound I-177, 4-(9′-cyclopentyl-5′-methyl-6′-oxo-5′,6′,8′,9′-tetrahydrospiro[cyclopropane-1,7′-pyrimido[4,5-b][1,4]diazepine]-2′-ylamino)-3-methoxy-N-(tetrahydro-2H-pyran-4-yl)benzamide]: below 10 nM; for `COc1cc(C(=O)NC2CC2)ccc1Nc1ncc2c(n1)N(C1CCCC1)CC1(CC1)C(=O)N2C` [Compound I-178, 4-(9′-cyclopentyl-5′-methyl-6′-oxo-5′,6′,8′,9′-tetrahydrospiro[cyclopropane-1,7′-pyrimido[4,5-b][1,4]diazepine]-2′-ylamino)-N-cyclopropyl-3-methoxybenzamide]: below 10 nM. The value for `COc1cc(C(=O)N[C@H]2CCOC2)ccc1Nc1ncc2c(n1)N(C1CCCC1)CC1(CC1)C(=O)N2C` [Compound I-179, (S)-4-(9′-cyclopentyl-5′-methyl-6′-oxo-5′,6′,8′,9′-tetrahydrospiro[cyclopropane-1,7′-pyrimido[4,5-b][1,4]diazepine]-2′-ylamino)-3-methoxy-N-(tetrahydrofuran-3-yl)benzamide] was below 10 nM. For `CNC(=O)c1ccc(Nc2ncc3c(n2)N([C@H]2CCOC2)CC(C)(C)C(=O)N3C)c(OC)c1` [Compound I-180, 4-(6,7,8,9-tetrahydro-9-((S)-tetrahydrofuran-3-yl)-5,7,7-trimethyl-6-oxo-5H-pyrimido[4,5-b][1,4]diazepin-2-ylamino)-3-methoxy-N-methylbenzamide], the inhibition constant Ki is below 10 nM.

In the case of `CNC(=O)c1ccc(Nc2ncc3c(n2)N([C@@H]2CCOC2)CC(C)(C)C(=O)N3C)c(OC)c1` [Compound I-181, 4-(6,7,8,9-tetrahydro-9-((R)-tetrahydrofuran-3-yl)-5,7,7-trimethyl-6-oxo-5H-pyrimido[4,5-b][1,4]diazepin-2-ylamino)-3-methoxy-N-methylbenzamide], the Ki is below 10 nM. On to `COc1cc(C(=O)NC2CCOCC2)ccc1Nc1ncc2c(n1)N(C1CCCC1)C[C@@H](C)C(=O)N2C` [Compound I-182, (R)-4-(9-cyclopentyl-5,7-dimethyl-6-oxo-6,7,8,9-tetrahydro-5H-pyrimido[4,5-b][1,4]diazepin-2-ylamino)-3-methoxy-N-(tetrahydro-2H-pyran-4-yl)benzamide], for which the inhibition constant Ki is below 10 nM. In turn, `COc1cc(C(=O)N[C@H]2CCOC2)ccc1Nc1ncc2c(n1)N(C1CCCC1)C[C@@H](C)C(=O)N2C` [Compound I-183, 4-((R)-9-cyclopentyl-5,7-dimethyl-6-oxo-6,7,8,9-tetrahydro-5H-pyrimido[4,5-b][1,4]diazepin-2-ylamino)-3-methoxy-N—((S)-tetrahydrofuran-3-yl)benzamide] displayed a Ki below 10 nM.
